Laboratory results as given in patent US20180305524A1, “Inulin Nanofibers” (The American University in Cairo, priority 2014, published 2018).

Columns and labels:
S. aureus = assay: Antibacterial activity, cork-borer method, inhibition zone with S. aureus; type: cell-based
Method: (§1) Polyvinyl Alcohol (PVA)/Inulin nanofibers are manufactured using electrospinning technique and tested for their prebiotic activity with Lactobacillus sp. and antibacterial activity with E. coli and S. aureus. After characterization and cross-linking of the produced PVA/Inulin Electrospun composite nanofibers (CNF), they were tested for their prebiotic activity with Lactobacillus sp. by viable count, optical density, pH and growth curve, and antibacterial activity with E. coli and S. aureus, by the cork-borer method, measuring the inhibition zone and the inhibition curve.
(§2) FIGS. 4A-B show according to an exemplary embodiment of the invention in FIG. 4A an inhibition zone of PVA electrospun Nanofibers, inulin solution, PVA/Inulin electrospun CNFs, antibiotic and water with E. coli, in FIG. 4B an inhibition zone of PVA electrospun Nanofibers, inulin solution, PVA/Inulin electrospun CNFs, antibiotic and water with S. aureus.

[1] = tested on: Bifidobacterium bifidum culture; details: inulin extracted from artichoke; cited from earlier work
[2] = tested on: bifidobacteria and lactobacillus; details: in vitro; cited from earlier work
E. coli = assay: Antibacterial activity, cork-borer method, inhibition zone with E. coli; type: cell-based
Method: as §1, §2

Lactobacillus sp. = assay: Prebiotic activity with Lactobacillus sp. culture (total viable count, pH, optical density after 24 hours incubation); type: cell-based
Method: as §1
FIGS. 2A-C show according to an exemplary embodiment of the invention in FIG. 2A Total viable count, FIG. 2B pH, and FIG. 2C Optical density of Lactobacillus sp. culture containing PVA electrospun Nanofibers, inulin solution, PVA/Inulin electrospun CNFs, and water after 24 hours of incubation.
Prebiotic activity was carried out using Lactobacillus sp. to assess the growth activity by calculating the i) total viable counts, ii) pH, iii) optical density (OD), and iv) growth curve.
The pH and the OD of the culture inoculated with the tested material were measured before incubation and after 24 hours incubation. PVA/Inulin electrospun CNFs solution decreased the pH to 5.7 compared to 6.3 for the control.

gut bifidobacteria = details: IBS patients; cited from earlier work

| Substance | inhibition zone (S. aureus) | growth of B. bifidum [1] | prebiotic effectiveness [2] | inhibition zone (E. coli) | pH of the culture (Lactobacillus sp.; after 24 hours incubation, control 6.3) | lactobacillus growth (total viable count) (Lactobacillus sp.; after 24 hours of incubation) | effectiveness as a prebiotic (gut bifidobacteria) |
| --- | --- | --- | --- | --- | --- | --- | --- |
| inulin [inulin solution] | didn't show any visible zone of inhibition | increased the growth | clear prebiotic effectiveness | didn't show any visible zone of inhibition | 6.2 | 2.9×10^3 cfu/mL |  |
| galactooligosaccharides |  |  |  |  |  |  | effective as a prebiotic |
| oligofructose [oligofructose (OF)] |  |  | clear prebiotic effectiveness |  |  |  |  |
